Four compounds from ChEMBL document CHEMBL1201862, “PubChem BioAssay data set” (2004) can be followed below.

Test systems include UO-31; OVCAR-8; A498; HOP-92; LOX IMVI; NCI-H23; KM12; NCI-H460; T47D; Malme-3M; COLO 205; MOLT-4; OVCAR-4; MDA-MB-435; NCI-H522; 786-0; ACHN; EKVX; SF-539; HCC 2998.
Holding throughout (assay): inhibition of tumour cell growth, NCI panel, 48 h

Where a name gives a salt, the structure may show the parent alone.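 Five concentrations, 48 hours, 96-well plates. GI50 marks 50% less growth.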 Activity calls are given as the source filed them. Rule as the data show it: active = GI50 up to about 1.1 µM and inactive = higher.

Turning to `O=C(N/N=C\c1ccc([N+](=O)[O-])cc1)Nc1ccccc1`, the GI50 in the experiment with UO-31 was > 100 µM (inactive); in the experiment with OVCAR-8, > 100 µM (inactive); with A498 it was > 100 µM (inactive); with HOP-92, > 100 µM (inactive); with LOX IMVI, > 10 µM (inactive); in the experiment with NCI-H23, > 100 µM (inactive). The GI50 in the experiment with KM12, in the experiment with NCI-H460, with T47D, in the experiment with Malme-3M, in the experiment on COLO 205 and in the experiment with MOLT-4 was > 100 µM (inactive) each time. The GI50 in the experiment with OVCAR-4 and in the experiment on MDA-MB-435 was > 100 µM (inactive) each time.

In the case of `COc1cc(C(c2cc(OC)c(OC)c(OC)c2)N2C(=O)CCC2C(=O)O)cc(OC)c1OC` (stereo unspecified), the GI50 with NCI-H522, in the experiment with 786-0, with UO-31, in the experiment on OVCAR-8, with A498 and with HOP-92 was > 100 µM (inactive) in each case. For the same compound, the GI50 in the experiment with NCI-H23, in the experiment on KM12, in the experiment with NCI-H460, in the experiment with ACHN, in the experiment with T47D and with EKVX was > 100 µM (inactive) throughout. The GI50 with Malme-3M, in the experiment on SF-539, in the experiment with COLO 205, with MOLT-4, in the experiment on OVCAR-4 and in the experiment on MDA-MB-435 was > 100 µM (inactive) in each case.

For `C[C@]12CC[C@H](O)CC1=CC[C@@H]1[C@@H]2CC[C@]2(C)NC(=O)/C(=C\c3ccccc3)C[C@@H]12`, the GI50 was 10.5 µM (inactive) with NCI-H522; 19.8 µM (inactive) with 786-0; 12.9 µM (inactive) with UO-31; 21.1 µM (inactive) in the experiment with OVCAR-8; 15.2 µM (inactive) in the experiment on A498; 13.4 µM (inactive) with HCC 2998. Also, the GI50 was 16.8 µM (inactive) in the experiment on LOX IMVI; 18.2 µM (inactive) in the experiment on NCI-H23; 14.5 µM (inactive) in the experiment on KM12; 23.9 µM (inactive) in the experiment with NCI-H460; 17.4 µM (inactive) in the experiment on ACHN; 12.3 µM (inactive) in the experiment with T47D. In addition, the GI50 is 14 µM (inactive) in the experiment with EKVX; 15.8 µM (inactive) in the experiment on Malme-3M; 14.6 µM (inactive) in the experiment on SF-539; 16 µM (inactive) in the experiment with COLO 205; 26.5 µM (inactive) in the experiment with MOLT-4; 5.64 µM (inactive) in the experiment on OVCAR-4. Also, the GI50 in the experiment with MDA-MB-435 was 18.3 µM (inactive).

With `CC[C@@]1(O)C(=O)OCc2c1cc1n(c2=O)Cc2cc3c(CN(C)C)c(O)ccc3nc2-1` [TOPOTECAN HYDROCHLORIDE], the GI50 in the experiment with NCI-H522 was 0.0306 µM (active); in the experiment with A498, 0.11 µM (active); in the experiment on HOP-92, 0.0318 µM (active); with NCI-H23, 0.0217 µM (active); in the experiment with KM12, 0.518 µM (active); in the experiment on NCI-H460 it was 0.0163 µM (active). Further, the GI50 in the experiment on ACHN is 0.0237 µM (active); with T47D, 0.00571 µM (active); in the experiment on EKVX it was 0.333 µM (active); in the experiment with Malme-3M it was 0.188 µM (active); with SF-539 it was 0.0168 µM (active); in the experiment on COLO 205, 0.293 µM (active). Moreover, the figures for the GI50 in the experiment on MOLT-4, in the experiment with OVCAR-4 and with MDA-MB-435 were 0.0125 µM (active), 0.412 µM (active) and 0.159 µM (active), respectively.
